Patent US20220273658A1, “SMALL MOLECULE LIVER X RECEPTOR MODULATORS AND USES THEREOF” (University of Houston System, priority 2019, published 2022)

Assays:
KPC tumor cells = assay: growth of KPC tumor cells from mouse model of PDAC; assay type: cell-based
Text: The effects of the ligands and derivatives on the growth of PDAC cells were further validated by cell counting and clonogenic assays.

PDAC cells = assay: pro-apoptotic caspase cleavage analysis; assay type: cell-based, human
Description: To determine if 1E5 and 3A4 can induce apoptosis, PDAC cells were treated with the LXR ligands and subjected to pro-apoptotic caspase cleavage analysis. […] Metabolomic profiling following treatments with the two ligands indicated the activation of two distinct cell death mechanisms. Ferroptosis is a non-apoptotic form of cell death which is characterized by accumulation of lipid peroxides by loss of glutathione peroxidase 4 (GPX4) activity. It can also be induced by accumulation of intracellular iron and depletion of reduced glutathione (GSH). GPX4 is an anti-oxidant enzyme involved in conversion of PUFA peroxides to PUFA alcohols. GSH is a critical cofactor of GPX4 and acts as a reducing agent to reduce the lipid peroxides. Therefore, direct inhibition of GPX4 activity or reduction in GSH levels trigger ferroptosis. The second mechanism of inducing ferroptosis is accumulation of polyunsaturated fatty acids (PUFAs) in cells. Studies have shown that PUFAs are the most susceptible lipids to peroxidation.
Accumulation of C18 ceramides in the mitochondria leads to the recruitment of auto phagosomes in mitochondria and induces LC3-ceramide dependent lethal mitophagy. […] Darkened circles indicate increases and the size of the circle corresponds to the significance of changes.

[1] = system: LXR proteins in MCF-7 cells; assay: western blot of LXR protein levels; assay type: cell-based
Text: (§1) The inhibitory effects of LXR ligands in breast cancer cells have been shown previously. […] The observed decreases in LXR protein levels were not affected by proteasome inhibitor MG132.

LXR in MDA-MB-231 cells = assay: western blot of LXR protein levels; assay type: cell-based
Text: as §1

[2] = system: LXR target genes SREBF1c, ABCA1, and ABCG1; assay: expression of LXR target genes in pancreatic cancer cell lines; assay type: cell-based, human
Text: To characterize the activity of the newly discovered ligands, the expression of LXR target genes SREBF1c, ABCA1, and ABCG1 was examined following treatment with vehicle, synthetic agonist GW3965, and Compounds 1E5 and 3A4. […] Basal expression of SREBF1c, the canonical LXR target gene involved in the regulation of glucose and lipid metabolism, was disrupted by the addition of novel LXR ligands, whereas their expression was induced following treatment with synthetic agonist GW3965 in all three pancreatic cancer cell lines tested, whereas the effects on ABCA1 and ABCG1 varied between the two novel ligands and across the cell lines.
(§2) To elucidate mechanisms of inverse agonism by the novel ligands, TR-FRET experiments were conducted to determine the effects of 1E5 and 3A4 on the recruitment of NR co-activators and co-repressors. […] In addition to their functions as inverse agonists, extended treatments with 1E5 and 3A4 also destabilized or decreased LXR proteins.

LXR-LBD = assay: differential scanning fluorimetry; assay type: binding
Text: (§3) The synthesis and characterization of KD-01-39, a derivative of 3A4, have not been described previously.

human PDAC cell lines = assay: cell viability response curves with increasing concentrations; assay type: cell-based
[3] = system: LXR ligand-binding domain; assay: TR-FRET assay of co-activator and co-repressor peptide recruitment; assay type: biochemical
Description: as §2, §3

GLS1 and GOT2 = assay: qPCR of genes involved in glutamine metabolism; assay type: cell-based, human; conditions: PDAC cells
Text: TCA cycle intermediates act as anaplerotic substrate for gluconeogenesis and lipogenesis. […] GOT2 converts glutamine-derived glutamate to alpha-KG. During this process oxaloacetate is converted to aspartate which is required to maintain redox homeostasis. Studies have shown that inhibition of GOT2 in PDAC promotes senescence.

MDA-MB-231 cells = assay: breast cancer cell proliferation; assay type: cell-based
Text: as §1

HPNE cells = assay: growth of non-transformed pancreatic epithelial cells (WST screen; FIG. 32D); assay type: cell-based, human; conditions: WST screen
Description: (§4) The initial identification and subsequent characterization of the two novel LXR ligands and their derivative compounds was carried out in screens in three human pancreatic cancer cell and one non-transformed human pancreatic epithelial cell line in three or more replicate experiments for each cell line using the WST tetrazolium salt reduction assays.
as §3

[4] = system: genes involved in ferroptosis; assay: quantitative PCR of genes involved in ferroptosis; assay type: cell-based, human
Text: Expression profiles of ferroptosis genes in RNAseq data following 1E5 treatment were also consistent with its pro-ferroptotic actions. […] Polyamines are amino-acid derived polycationic alkylamines that are required for the growth of cells. SAT1 catalyzes the acetylation of spermidine and spermine to form N-acetylspermidine and N-acetylspermine respectively. […] SAT1 induces ferroptosis by upregulating the peroxidation of PUFA arachidonic acid. Ceramides are sphingolipids consisting of sphingosine and fatty acid acyl chain. Cellular stress leads to upregulation of ceramide synthesis which mediate caspase-dependent apoptosis. Accumulation of ceramides/hexosylceramides in the mitochondria leads to the formation of channel like structures in the mitochondrial outer membrane which increases the permeability of pro-apoptotic proteins such as cytochrome c. ER stress is also known to activate de-novo synthesis of ceramides and induce apoptosis by increasing the flow of Ca ions and upregulating the unfolded protein stress response.

PDAC cell lines = assay: tetrazolium salt reduction (WST) assay in PDAC cell lines; assay type: cell-based, human; conditions: WST screen, three human pancreatic cancer cell lines
Description: To determine the effects of LXR ligands on PDAC cell proliferation, cells were treated with synthetic LXR agonist GW3965 and live cells were quantified using trypan blue exclusion assays. […] FIGS. 8A, 8B, and 8C show dose-dependent decreases in cell proliferation in BxPC-3, Mia-PaCa-2, and PANC-1, respectively upon treatment with increasing GW3965 concentrations. […] Clonogenic assays were also employed to evaluate the effects of long-term LXR ligand treatment on cell proliferation and colony formation. […] These findings indicate that LXRs are involved in PDAC cell proliferation and targeting LXRs with ligands perturb their normal functions in cell proliferation.
as §4

LXR proteins = molecular target: T1, LXR proteins (Homo sapiens, UniProt P55055); assay: LXR protein levels after long-term treatment of pancreatic cancer cells; assay type: cell-based; conditions: long-term treatments
T1 construct: expression of LXR proteins in different pancreatic cancer cell lines following long-term treatments; endogenous in cells; host or cells: pancreatic cancer cell lines (BxPC-3, MIA PaCa-2, PANC-1 named elsewhere)
T1 sequence (P55055 whole entry): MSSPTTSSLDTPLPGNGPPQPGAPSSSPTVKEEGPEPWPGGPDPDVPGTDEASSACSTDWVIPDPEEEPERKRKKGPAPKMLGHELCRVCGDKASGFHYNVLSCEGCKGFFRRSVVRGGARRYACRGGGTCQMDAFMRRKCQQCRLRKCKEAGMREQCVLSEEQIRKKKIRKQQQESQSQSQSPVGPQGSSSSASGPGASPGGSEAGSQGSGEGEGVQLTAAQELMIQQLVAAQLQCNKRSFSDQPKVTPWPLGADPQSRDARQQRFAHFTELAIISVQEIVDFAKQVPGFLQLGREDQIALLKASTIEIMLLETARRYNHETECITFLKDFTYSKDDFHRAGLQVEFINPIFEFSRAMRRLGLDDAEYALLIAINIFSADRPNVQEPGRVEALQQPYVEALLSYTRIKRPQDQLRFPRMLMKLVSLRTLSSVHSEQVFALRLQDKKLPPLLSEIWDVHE
Description: as §2

binding of NCOR and SMRT co-repressor peptides ([3]; co-repressor (NCOR and SMRT-ID2) peptides): increased the binding
activity against non-transformed HPNE cells (HPNE cells): little activity
LXR protein levels (LXR proteins): decreased LXR protein levels
Structure (SMILES): O=c1cc(-c2ccccc2)nc(Nc2cccc(C(F)(F)F)c2)[nH]1 [Compound 1E5, 6-phenyl-2-{[3-(trifluoromethyl)phenyl]amino}-3,4-dihydropyrimidin-4-one]
growth of KPC tumor cells (KPC tumor cells): blocked the growth
pro-apoptotic caspase cleavage (PDAC cells): did not
LXR protein levels (degradation) [1]: act as degraders of LXR proteins
LXR protein levels (degradation) (LXR in MDA-MB-231 cells): degraded LXR
basal expression of SREBF1c ([2]; all three pancreatic cancer cell lines): disrupted
expression of FASN, SCD, and ACC ([2]; pancreatic cancer cells): decreased the expression
expression of LXR target genes ([2]; three pancreatic cancer cell lines): reducing the expression of LXR target genes
LXR-LBD structure and dye dissociation with increasing temperature (LXR-LBD): disrupted the LBD structure
potency in response curves compared to GW3965 (human PDAC cell lines): more potent activity as compared to GW3965
co-activator peptide binding to LXR ligand-binding domain ([3]; co-activator (D22) peptide): did not affect co-activator peptide binding
expression of GLS1 and GOT2 (GLS1 and GOT2): downregulated the expression
proliferation of MDA-MB-231 cells (MDA-MB-231 cells): inhibited
expression of GPX4 and other negative regulators of ferroptosis (STMN1, RRM2) [4]: decreased the expression
expression of SAT1 [4]: increases the expression
human pancreatic cancer cells growth (PDAC cell lines): effective in inhibiting human pancreatic cancer cells growth
